# Test system: Jurkat cells
# Assay: Caspase-3 activation in Jurkat cells (immunoblot)
# Assay type: cell-based, human
# Conditions: 50 μM compound or 1 μM staurosporin, 6 hr
# Experimental: (C) DNA fragmentation analysis. […] Cell viability assay.
# Compounds were then tested for their ability to induce apoptosis in live cells. The ability of the compounds to activate caspase-3 in a Jurkat cell line was first assayed. […] This same pattern was seen when we assayed for the cleavage of poly (ADP-ribose) polymerase (PARP), a cellular substrate of caspases-3 and -7 (see, D. W. Nicholson, Cell Death Differ 6, 1028-42 (1999)). Upon apoptosis, PAR-P is cleaved from a 116 kD to an 85 kD protein.
row,Structure (SMILES),processing of procaspase-3
1,O=C1C(=O)N(Cc2ccc(Cl)c(Cl)c2)c2ccccc21 [Compound 2],significant processing
2,O=C(NCc1ccc(Cl)c(Cl)c1)OC1CCc2ccccc21 (stereo not drawn) [Compound 4],less processing
3,O=C(NCc1ccc(Cl)c(Cl)c1)OC1CCc2ccccc21 (stereo not drawn) [Compound 5],significant processing

# Test system: Jurkat cells
# Assay: DNA fragmentation analysis in Jurkat cells
# Assay type: cell-based, human
# Conditions: 50 μM compound or 1 μM staurosporin, 8 hr
row,Structure (SMILES),DNA fragmentation
1,O=C1C(=O)N(Cc2ccc(Cl)c(Cl)c2)c2ccccc21 [Compound 2],induced DNA fragmentation
2,O=C(NCc1ccc(Cl)c(Cl)c1)OC1CCc2ccccc21 (stereo not drawn) [Compound 4],less pronounced effect
3,O=C(NCc1ccc(Cl)c(Cl)c1)OC1CCc2ccccc21 (stereo not drawn) [Compound 5],induced DNA fragmentation

# Reference: patent US20030229132A1, “Small molecule modulators of apoptosis” (priority 2002, published 2003)
